The text below walks through data of PubChem BioAssay (NCI).

Structures are written as SMILES. Several values for one entry are separate records, joined by “and”; a condition that tells them apart may be missing. Equal values may be shown once.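 Assay format: 96-well plates, 48-hour exposure. GI50: concentration for 50% inhibition of growth. TGI: concentration producing complete growth inhibition.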

Common to all, as to test: NCI-60 cell line screen, 48 h
For test [1], the system named is 786-0 renal.
Test [2] concerns MDA-MB-435.
In test [3] the test system is K-562 leukemia.
The subject of test [4] is PC-3 prostate.
The subject of test [5] is OVCAR-8 ovarian.
For test [6], the system named is CAKI-1 renal.
For test [7], the system named is A549 NSCLC.
Test [8] relates to NCI-H226 lung.
Test [9] deals with SF-295 CNS.
The test system of test [10] is SN12C renal.

On to `COc1ccc(C2CC(C)(O)Oc3cc4c(cc32)OCO4)cc1` (stereo not drawn), for which the TGI in test [1] is greater than 100 µM; in test [2], 42.9 µM; in [3], 98.7 µM; in test [4] it was greater than 81.1 µM; in test [5], greater than 100 µM; in test [6], greater than 100 µM. Moreover, the TGI in [7], in test [8], in [9] and in test [10] was greater than 100 µM throughout.

In the case of `O=C(Cn1c(=O)c(-c2ccccc2)nc2ccccc21)Nc1ccc(F)cc1`, the GI50 is 75.2 µM in [1]; greater than 100 µM in test [2]; 35.8 µM in test [3]; 39.9 µM in test [4]; 39.6 µM in test [5]; greater than 100 µM in test [6]. The GI50 in test [7] is 94.8 µM; in [8], greater than 100 µM; in [9], greater than 100 µM; in test [10] it was 77.5 µM. The TGI in [1], in [2], in [3], in test [4], in test [5] and in [6] was greater than 100 µM in each case. The TGI in test [7], in [8], in test [9] and in test [10] was greater than 100 µM each time.

For `CCC1CN2C(=N1)c1ccccc1-c1cc(Cl)ccc12` (stereo not drawn), the GI50 in test [1] is 3.32 µM; in [2], 4.39 µM; in test [3], 2.39 µM; in test [4], 2.82 µM; in [5] it was 3.32 µM; in test [6], 4.32 µM. The GI50 in test [7] was 2.24 µM; in [8] it was 1.81 µM; in [9] it was 3.91 µM; in test [10], 2.97 µM. Besides, the TGI was found to be 13 µM in test [1]; 16.2 µM in test [2]; 7.1 µM in [3]; 11.8 µM in [4]; 18.4 µM in test [5]; 46.7 µM in [6]. Moreover, the TGI in [7] was determined as 15.6 µM; in test [8], 4.86 µM; in test [9], 31.3 µM; in test [10] it was 17.4 µM.

As for `COC1/C=C/C(C)C(C(C)C(OC)C(C)CCC(=O)C(C)C(C/C=C/N(C)C=O)OC)OC(=O)/C=C/C=C(\C)CC(OC)CC2=CC(=O)O[C@H](C2)C(C)C(OC)CC(OC)/C=C/C(C)C(OC)C1` (stereo partly drawn), the GI50 in test [1] is 0.0155 µM; in [2], 0.0303 µM; in test [3], 0.00105 µM; in [5], 0.0227 µM; in [6] it was 0.00682 µM; in test [7] it was 0.0185 µM. Further, the GI50 in test [8] was 0.0215 µM; in test [9], 0.0277 µM; in test [10], 0.143 µM. In addition, the TGI in test [1] was 0.0356 µM; in [2], 0.472 µM and 0.311 µM; in test [4] it was 0.0387 µM and 0.0417 µM; in [5] it was 0.0768 µM and 0.196 µM; in test [6], 0.0308 µM and 0.0117 µM; in test [7], 0.271 µM and 0.284 µM. For the same compound, the TGI in [8] was 0.129 µM; in [9], 0.159 µM and 0.0165 µM; in test [10], 47.5 µM.
